{"source": "patent US8512681B2", "about": "(GUMLINK A/S, priority 2005, dated 2013)", "tested_on": "plaque", "settings": "in chewing gum", "data": [{"molecule": "CC(=O)[O-].CC(=O)[O-].[Zn+2]", "note": "[zinc acetate]", "values": [{"measurement": "effect on plaque in hard-to-reach places (in words)", "result": "worked in the “hard-to-reach” places with high efficiency"}]}]}
